The target of series [1] is T1, AChE from human erythrocytes (Homo sapiens, UniProt P22303).
T1 construct: Acetylcholinesterase (AChE, EC 3.1.1.7, from human erythrocyte); purchased Sigma-Aldrich (Germany); host or cells: human erythrocytes
The series is classed as biochemical. The note with it: for αKi (non-competitive component), AChE / Ki: Lineweaver-Burk analysis; for Ki: read-out: Ki (competitive component), AChE. As to the method: (§1) To elucidate the inhibition mechanisms for the active compounds, the AChE and BChE residual activity was determined in the presence of 3 increasing concentrations of the test compounds and 6 decreasing concentrations of the substrates. The test compounds were preincubated with the enzymes at 25 °C for 5 min, followed by the addition of the substrates. Parallel controls were made for an assay of the rate of hydrolysis of the same concentrations of substrates in the solutions with no inhibitor. […] Each experiment was performed three times.

For series [2], the target named is T2, BChE from equine serum (Equus caballus, UniProt P81908).
T2 construct: butyrylcholinesterase (BChE, EC 3.1.1.8, from equine serum); purchased Sigma-Aldrich (Germany); host or cells: equine serum
T2 sequence (P81908 whole entry): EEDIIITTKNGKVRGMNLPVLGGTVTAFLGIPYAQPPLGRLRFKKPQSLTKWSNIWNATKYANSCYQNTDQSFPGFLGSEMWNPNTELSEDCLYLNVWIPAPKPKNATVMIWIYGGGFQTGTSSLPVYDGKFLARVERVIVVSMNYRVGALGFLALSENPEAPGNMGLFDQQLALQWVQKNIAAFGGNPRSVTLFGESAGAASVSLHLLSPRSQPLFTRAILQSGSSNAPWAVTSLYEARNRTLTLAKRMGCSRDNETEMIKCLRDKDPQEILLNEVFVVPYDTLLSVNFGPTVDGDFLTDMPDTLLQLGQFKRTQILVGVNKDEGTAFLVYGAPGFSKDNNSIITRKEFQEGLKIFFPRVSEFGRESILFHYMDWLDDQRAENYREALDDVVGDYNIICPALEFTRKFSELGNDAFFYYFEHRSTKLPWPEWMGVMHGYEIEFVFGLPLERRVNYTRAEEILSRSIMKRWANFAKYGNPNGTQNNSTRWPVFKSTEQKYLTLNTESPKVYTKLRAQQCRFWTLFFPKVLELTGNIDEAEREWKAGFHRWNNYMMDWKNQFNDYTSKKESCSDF
In kind it is biochemical. Particulars: for αKi (non-competitive component), BChE / Ki: Lineweaver-Burk analysis; for Ki: read-out: Ki (competitive component), BChE. As for the experimental part: as §1

For series [3] the following is noted: cited from earlier work.
[4] abbreviates: Lineweaver-Burk plots, changes in Vmax and Km.

The term Ki denotes the dissociation constant of the complex between target and ligand, obtained from inhibition or displacement.

T1 sequence (P22303 32-617 isoform P22303-2 limits assumed): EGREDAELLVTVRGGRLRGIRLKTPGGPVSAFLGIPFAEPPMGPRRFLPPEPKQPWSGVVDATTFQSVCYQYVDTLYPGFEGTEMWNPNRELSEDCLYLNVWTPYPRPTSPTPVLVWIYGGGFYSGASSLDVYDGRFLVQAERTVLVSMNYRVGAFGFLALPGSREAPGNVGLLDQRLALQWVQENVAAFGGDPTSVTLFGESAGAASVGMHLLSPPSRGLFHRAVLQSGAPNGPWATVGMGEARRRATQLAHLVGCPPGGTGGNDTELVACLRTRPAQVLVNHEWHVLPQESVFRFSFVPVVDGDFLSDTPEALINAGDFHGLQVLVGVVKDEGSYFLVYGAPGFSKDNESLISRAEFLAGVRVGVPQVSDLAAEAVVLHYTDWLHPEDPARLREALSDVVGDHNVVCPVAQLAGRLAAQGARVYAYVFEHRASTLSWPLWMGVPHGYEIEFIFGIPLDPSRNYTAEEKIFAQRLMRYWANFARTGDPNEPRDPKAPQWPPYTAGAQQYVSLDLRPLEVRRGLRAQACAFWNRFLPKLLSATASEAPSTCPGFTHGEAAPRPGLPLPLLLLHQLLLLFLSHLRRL

`Cc1ccc2c(c1)c1c(n2CCC(=O)N2c3ccc(N(C)C)cc3Sc3cc(N(C)C)ccc32)CCN(C)C1` [Compound 3]: in series [1], the “αKi (non-competitive component), AChE” value was 3.35 ± 0.31 µM and the inhibition constant Ki turned out to be 0.88 ± 0.07 µM. Further, the “type of AChE inhibition” value in series [1] (setting [4]) is given as “mixed-type inhibition”. In series [2], the “αKi (non-competitive component), BChE” value was found to be 2.09 ± 0.19 µM and the Ki was determined as 0.37 ± 0.03 µM. In series [2] (setting [4]), the “type of BChE inhibition” value is recorded as “mixed-type inhibition”.

Take `Cc1ccc2c(c1)c1c(n2CCC(=O)N2c3ccc(N(C)C)cc3Sc3cc(N(C)C)ccc32)CCN(C(C)C)C1.Cl.Cl.Cl` [Compound 6]: in series [1], the “αKi (non-competitive component), AChE” value is 13.4 ± 1.2 µM and the Ki came to 3.52 ± 0.29 µM. In series [2], the “αKi (non-competitive component), BChE” value is on record as 2.64 ± 0.24 µM and the Ki came to 0.53 ± 0.04 µM.

In the case of `CN(C)c1ccc2nc3ccc(=[N+](C)C)cc-3sc2c1` [MB, methylene blue, reference compound], the redox potential in series [3] is on record as 11 mV.

The values above are taken from publication PMC6424957 (Scientific Reports, 2019).
